Measured values as given in patent publication US20240374590A1, “COMPOSITIONS AND METHODS FOR TREATING CANCER” (A2A PHARMACEUTICALS, INC., priority 2021, published 2024).

Columns and labels:
[1] = tested on: HCT-116 human colon carcinoma cell line; experiment: Cell viability assay (SRB) in HCT-116; format: cell-based; conditions: 72 hours after treatment, read-out: HCT116 IC50
Experimental: (§1) Human colon carcinoma cell line HCT-116 was a kind gift from Igor Ronninson from University of South Caroli, Columbia, USA. Human breast cancer cell line, JIMT-1 was kindly provided by Ali Osmay Güre from Bilkent University, Ankara, Turkey. Cells were cultured in Dulbecco's modified Eagle's medium (Lonza, NJ, USA), supplemented with 10% fetal bovine serum (FBS, Lonza), 1% non-essential amino acid (NEAA), 2 mM L-glutamine (Sigma Aldrich, MO, USA) and 50 U/ml penicillin/streptomycin (P/S). HCT-116 cells were cultured in McCoy's 5A (modified) (Gibco) medium supplemented with FBS, NEAA, L-glutamine and P/S. All cell lines were tested regularly using MycoAlert Mycoplasma Detection Kit (Lonza). The cumulative length of the cells between thawing and use in the experiments was less than 20 passages.
(§2) Newly synthesized molecules were dissolved in 100% DMSO to yield a stock concentration of 10 mM. For cell viability assay, JIMT-1 (3×10^3 cells/well) and HCT-116 (4×10^3), cells were seeded into 96-well plates, and 24 hours after cell seeding inhibitor treatments were performed at different concentrations. Cell viability was measured 72 hours after treatment with Sulforhodamine B (SRB, Sigma Aldrich) assay as recommended by the manufacturer.

[2] = tested on: JIMT-1 human breast cancer cell line; experiment: Cell viability assay (SRB) in JIMT-1; format: cell-based; conditions: 72 hours after treatment, read-out: JIMT1 IC50
Experimental: as §1, §2

Row | Structure (SMILES) | IC50 [1] | IC50 [2]
1 | FC(F)Oc1ccc(-c2cc(Nc3ccnc(N4CCC(F)(F)CC4)n3)[nH]n2)cc1 [Compound 253, N-(3-(4-(difluoromethoxy)phenyl)-1H-pyrazol-5-yl)-2-(4,4-difluoropiperidin-1-yl)pyrimidin-4-amine] | 1.56 µM | 0.148 µM
2 | COc1ccc(-c2cc(Nc3ccnc(N4C[C@@H](C)O[C@H](C)C4)n3)[nH]n2)cc1F [Compound 106, 2-((2R,6R)-2,6-dimethylmorpholino)-N-(3-(3-fluoro-4-methoxyphenyl)-1H-pyrazol-5-yl)pyrimidin-4-amine] | 0.091 µM | 0.062 µM
3 | COc1ccc(-c2cc(Nc3ccnc(N4CCC(F)CC4)n3)[nH]n2)c(F)c1 [Compound 131, N-(3-(2-fluoro-4-methoxyphenyl)-1H-pyrazol-5-yl)-2-(4-fluoropiperidin-1-yl)pyrimidin-4-amine] | 0.047 µM | 0.053 µM
4 | COc1ccc(-c2cc(Nc3ccnc(N4CCOC(C)C4)n3)[nH]n2)c(F)c1 (stereo not shown) [Compound 137, N-(3-(2-fluoro-4-methoxyphenyl)-1H-pyrazol-5-yl)-2-(2-methylmorpholino)pyrimidin-4-amine] | 0.059 µM | 0.024 µM
5 | C[C@H]1COCCN1c1ncc(F)c(Nc2cc(-c3ccc(OC(F)F)cc3)n[nH]2)n1 [Compound 294, (S)-N-(3-(4-(difluoromethoxy)phenyl)-1H-pyrazol-5-yl)-5-fluoro-2-(3-methylmorpholino)pyrimidin-4-amine] | 1.14 µM | 0.636 µM
6 | FC1CN(c2nccc(Nc3cc(-c4ccc(OC(F)F)cc4)n[nH]3)n2)C1 [Compound 246, N-(3-(4-(difluoromethoxy)phenyl)-1H-pyrazol-5-yl)-2-(3-fluoroazetidin-1-yl)pyrimidin-4-amine] | ≥ 10 µM | 0.071 µM
7 | COc1cc(-c2cc(Nc3ccnc(N4C[C@@H](C)O[C@@H](C)C4)n3)[nH]n2)cc(OC)c1OC [Compound 203, 2-((2R,6S)-2,6-dimethylmorpholino)-N-(3-(3,4,5-trimethoxyphenyl)-1H-pyrazol-5-yl)pyrimidin-4-amine] | 2.49 µM | 1.7 µM
8 | COc1ccc(-c2cc(Nc3ccnc(N4CCCC4)n3)[nH]n2)c(F)c1 [Compound 151, N-(3-(2-fluoro-4-methoxyphenyl)-1H-pyrazol-5-yl)-2-(pyrrolidin-1-yl)pyrimidin-4-amine] | 0.052 µM | 0.018 µM
9 | COc1ccc(-c2cc(Nc3ccnc(N4CCC4)n3)[nH]n2)c(F)c1 [Compound 153, 2-(azetidin-1-yl)-N-(3-(2-fluoro-4-methoxyphenyl)-1H-pyrazol-5-yl)pyrimidin-4-amine] | 0.01 µM | 0.006 µM
10 | CC1COCC(C)N1c1ncc(F)c(Nc2cc(-c3ccc(OC(F)F)cc3)n[nH]2)n1 (stereo not shown) [Compound 286, N-(3-(4-(difluoromethoxy)phenyl)-1H-pyrazol-5-yl)-2-(3,5-dimethylmorpholino)-5-fluoropyrimidin-4-amine] | 5.22 µM | 1.69 µM
11 | CC1(C)CN(c2nccc(Nc3cc(-c4ccc(OC(F)F)cc4)n[nH]3)n2)C1 [Compound 247, N-(3-(4-(difluoromethoxy)phenyl)-1H-pyrazol-5-yl)-2-(3,3-dimethylazetidin-1-yl)pyrimidin-4-amine] | ≥ 10 µM | 0.142 µM
12 | Fc1cnc(N2CCC2)nc1Nc1cc(-c2ccc(OC(F)F)cc2)n[nH]1 [Compound 289, 2-(azetidin-1-yl)-N-(3-(4-(difluoromethoxy)phenyl)-1H-pyrazol-5-yl)-5-fluoropyrimidin-4-amine] | 0.371 µM | 0.18 µM
13 | C[C@@H]1CN(c2nccc(Nc3cc(-c4ccc(Cl)cc4)n[nH]3)n2)C[C@H](C)O1 [Compound 197, N-(3-(4-chlorophenyl)-1H-pyrazol-5-yl)-2-((2R,6S)-2,6-dimethylmorpholino)pyrimidin-4-amine] | 0.255 µM | 
14 | C[C@@H]1CN(c2ncc(F)c(Nc3cc(-c4ccc(OC(F)F)cc4)n[nH]3)n2)C[C@H](C)O1 [Compound 287, N-(3-(4-(difluoromethoxy)phenyl)-1H-pyrazol-5-yl)-2-((2R,6S)-2,6-dimethylmorpholino)-5-fluoropyrimidin-4-amine] | 0.091 µM | 0.049 µM
15 | COc1ccc(-c2cc(Nc3ccnc(N4C[C@@H](C)O[C@@H](C)C4)n3)n(C)n2)c(F)c1 [Compound 187, 2-((2R,6S)-2,6-dimethylmorpholino)-N-(3-(2-fluoro-4-methoxyphenyl)-1-methyl-1H-pyrazol-5-yl)pyrimidin-4-amine] | 0.228 µM | 0.158 µM
16 | COc1ccc(-c2cc(Nc3ccnc(N4C[C@@H](C)O[C@@H](C)C4)n3)[nH]n2)cc1F [Compound 86b, 2-((2R,6S)-2,6-dimethylmorpholino)-N-(3-(3-fluoro-4-methoxyphenyl)-1H-pyrazol-5-yl)pyrimidin-4-amine] | 0.005 µM | 0.007 µM
17 | COc1ccc(-c2csc(Nc3ccnc(N4CCOCC4)n3)n2)cc1 [Compound 174, 4-(4-methoxyphenyl)-N-(2-morpholinopyrimidin-4-yl)thiazol-2-amine] |  | ≥ 10 µM
18 | C[C@@H]1CN(c2nccc(Nc3cc(-c4ccc(N5CCCC5)cc4)n[nH]3)n2)C[C@H](C)O1 [Compound 209, 2-((2R,6S)-2,6-dimethylmorpholino)-N-(3-(4-(pyrrolidin-1-yl)phenyl)-1H-pyrazol-5-yl)pyrimidin-4-amine] | 0.108 µM | 
19 | COc1ccc(-c2coc(Nc3ccnc(N4CCOCC4)n3)n2)cc1 [Compound 177, 4-(4-methoxyphenyl)-N-(2-morpholinopyrimidin-4-yl)oxazol-2-amine] |  | ≥ 10 µM
20 | CCc1ccc(-c2cc(Nc3ccnc(N4C[C@@H](C)O[C@@H](C)C4)n3)[nH]n2)cc1 [Compound 199, 2-((2R,6S)-2,6-dimethylmorpholino)-N-(3-(4-ethylphenyl)-1H-pyrazol-5-yl)pyrimidin-4-amine] | 0.09 µM | 
21 | C[C@@H]1CN(c2nccc(Nc3cc(-c4ccc(S(C)(=O)=O)cc4)n[nH]3)n2)C[C@H](C)O1 [Compound 206, 2-((2R,6S)-2,6-dimethylmorpholino)-N-(3-(4-(methylsulfonyl)phenyl)-1H-pyrazol-5-yl)pyrimidin-4-amine] | 4.64 µM | 
22 | Cc1ccc(-c2cc(Nc3ccnc(N4C[C@@H](C)O[C@@H](C)C4)n3)[nH]n2)cc1 [Compound 198, 2-((2R,6S)-2,6-dimethylmorpholino)-N-(3-(p-tolyl)-1H-pyrazol-5-yl)pyrimidin-4-amine] | 0.08 µM | 
23 | COc1ccc(-c2cc(Nc3cccc(N4CCOCC4)n3)[nH]n2)c(F)c1 [Compound 298, N-(3-(2-fluoro-4-methoxyphenyl)-1H-pyrazol-5-yl)-6-morpholinopyridin-2-amine] |  | 0.034 µM
24 | C[C@@H]1CN(c2cc(Nc3cc(-c4ccc(OC(F)F)cc4)n[nH]3)ccn2)C[C@H](C)O1 [Compound 308, N-(3-(4-(difluoromethoxy)phenyl)-1H-pyrazol-5-yl)-2-((2R,6S)-2,6-dimethylmorpholino)pyridin-4-amine] |  | 0.053 µM
25 | COc1ccc(-c2cc(Nc3nc(N4C[C@@H](C)O[C@@H](C)C4)ncc3C)[nH]n2)c(F)c1 [Compound 283, 2-((2R,6S)-2,6-dimethylmorpholino)-N-(3-(2-fluoro-4-methoxyphenyl)-1H-pyrazol-5-yl)-5-methylpyrimidin-4-amine] |  | 0.212 µM
